Measured values published in article PMC4951196, “The Lamin B receptor is essential for cholesterol synthesis and perturbed by disease-causing mutations” (eLife, 2016).

Target: T1, Lamin B receptor (LBR) (Homo sapiens, UniProt Q14739)
T1 construct: Flag-tagged LBR, WT, expressed in Expi293 cells and purified
T1 sequence (Q14739 1-615): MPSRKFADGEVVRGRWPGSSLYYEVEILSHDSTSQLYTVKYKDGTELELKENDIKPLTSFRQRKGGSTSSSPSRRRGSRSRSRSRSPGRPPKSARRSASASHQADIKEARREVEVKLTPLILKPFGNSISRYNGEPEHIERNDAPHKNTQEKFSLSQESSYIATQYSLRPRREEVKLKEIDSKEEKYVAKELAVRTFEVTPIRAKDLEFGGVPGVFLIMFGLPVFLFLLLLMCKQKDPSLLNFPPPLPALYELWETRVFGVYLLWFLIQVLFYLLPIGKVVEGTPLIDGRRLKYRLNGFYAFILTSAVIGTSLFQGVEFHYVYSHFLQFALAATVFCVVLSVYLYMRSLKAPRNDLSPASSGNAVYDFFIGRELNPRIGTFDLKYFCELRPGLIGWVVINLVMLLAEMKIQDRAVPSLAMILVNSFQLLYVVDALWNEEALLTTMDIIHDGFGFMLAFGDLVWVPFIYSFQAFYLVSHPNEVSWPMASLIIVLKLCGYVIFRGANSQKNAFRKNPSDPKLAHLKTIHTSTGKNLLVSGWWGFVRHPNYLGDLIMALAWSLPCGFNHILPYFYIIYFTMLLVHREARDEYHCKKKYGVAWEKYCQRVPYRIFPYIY
Experiment: intrinsic tryptophan fluorescence titration of purified LBR
Type: binding

NC(=O)C1=CN([C@@H]2O[C@H](COP(=O)(O)OP(=O)(O)OC[C@H]3O[C@@H](n4cnc5c(N)ncnc54)[C@H](OP(=O)(O)O)[C@@H]3O)[C@@H](O)[C@H]2O)C=CC1 [NADPH]
Kd: 24.2 µM
